# Biological target: T1, human GLP1R (Homo sapiens, UniProt P43220)
# T1 construct: expressed in transfected cells; host or cells: CHO cells (ATCC), transient transfection with pCMV-human GLP1R
# Assay: Human GLP-1 receptor transfected cell assay (MRE/CRE-luciferase reporter gene, agonist activity)
# Assay type: cell-based
# Settings: 6 h; conc. 10 μM; percentage of the activity of the control; read-out: Agonist Activity
# Outline: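 CHO cells transiently co-transfected with human GLP1R and MRE/CRE-driven luciferase reporter plasmids. Compound or GLP-1 (7-36 amide) standard dilution series added for 6 h at 37 °C, 5% CO2. Agonist activity read as Bright-Glo luciferase luminescence.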
# T1 sequence (P43220 24-463): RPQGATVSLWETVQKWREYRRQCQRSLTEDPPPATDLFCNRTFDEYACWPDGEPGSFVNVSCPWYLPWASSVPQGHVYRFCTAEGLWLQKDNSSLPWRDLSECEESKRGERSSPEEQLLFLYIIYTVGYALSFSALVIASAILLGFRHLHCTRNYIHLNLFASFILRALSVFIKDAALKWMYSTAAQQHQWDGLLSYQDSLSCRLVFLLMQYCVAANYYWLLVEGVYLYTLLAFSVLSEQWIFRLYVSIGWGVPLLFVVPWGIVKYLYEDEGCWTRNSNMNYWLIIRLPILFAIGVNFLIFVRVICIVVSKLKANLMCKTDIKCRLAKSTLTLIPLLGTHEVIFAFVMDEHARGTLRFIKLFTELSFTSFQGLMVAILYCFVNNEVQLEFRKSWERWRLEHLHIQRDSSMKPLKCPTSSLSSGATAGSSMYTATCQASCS
row,SMILES,activation at 10 µM [%]
1,CC(C)c1ccc(S(=O)(=O)NC(Cc2ccc(-c3noc(-c4ccc(NC(=O)OC(C)(C)C)cc4)n3)c(F)c2)C(=O)O)cc1 (stereo not drawn) [Compound 11C],20 to 40
2,Cc1ccc(CNC(=O)C(Cc2ccc(OC(=O)c3ccc(NC(=O)OC(C)(C)C)cc3)c(F)c2)c2nnn[nH]2)cc1 (stereo not drawn) [Compound 11D],20 to 40
3,Cc1ccc(S(=O)(=O)NC(Cc2ccc(-c3noc(-c4ccc(NC(=O)OC(C)(C)C)cc4)n3)c(F)c2)C(=O)O)cc1Cl (stereo not drawn) [Compound 11F],40 to 60
4,CC(C)(C)OC(=O)Nc1ccc(-c2nc(-c3ccc(CC(NC(=O)c4ccc(-c5ccc([N+](=O)[O-])cc5)o4)C(=O)O)cc3F)no2)cc1 (stereo not drawn) [Compound 11G],> 60
5,CC(C)(C)OC(=O)Nc1ccc(-c2nc(-c3ccc(CC(NS(=O)(=O)c4ccc([N+](=O)[O-])cc4)C(=O)O)cc3F)no2)cc1 (stereo not drawn) [Compound 11H],40 to 60
6,Cc1cc(C)c(S(=O)(=O)NC(Cc2ccc(-c3noc(-c4ccc(NC(=O)OC(C)(C)C)cc4)n3)c(F)c2)C(=O)O)c(C)c1 (stereo not drawn) [Compound 11I],40 to 60
7,CC(C)(C)OC(=O)Nc1ccc(-c2nc(-c3ccc(CC(NS(=O)(=O)c4cccc5cccnc45)C(=O)O)cc3F)no2)cc1 (stereo not drawn) [Compound 11J],> 60
8,CC(C)(C)OC(=O)Nc1ccc(-c2nc(-c3ccc(CC(NS(=O)(=O)c4ccc(-c5ccccc5)cc4)C(=O)O)cc3F)no2)cc1 (stereo not drawn) [Compound 11K],> 60
9,CC(C)(C)OC(=O)Nc1ccc(-c2nc(-c3ccc(CC(NS(=O)(=O)c4ccc(OC(F)(F)F)cc4)C(=O)O)cc3F)no2)cc1 (stereo not drawn) [Compound 11L],20 to 40

# Same assay, conditions: 6 h; concentration 1 μM; read-out: Activity (agonist), percentage of the activity of the control
row,SMILES,activation at 1 µM [%]
1,CC(C)(C)OC(=O)Nc1ccc(-c2nc(-c3ccc(C[C@@H](NC(=O)c4ccc(-c5ccc(C6CC6)cc5)o4)C(=O)O)cc3F)no2)cc1 [Compound 6G],40 to 60
2,Cc1ccc(-c2cccc(C(=O)N[C@H](Cc3ccc(-c4noc(-c5ccc(NC(=O)OC(C)(C)C)cc5)n4)c(F)c3)C(=O)O)c2)cc1F [Compound 6L],20 to 40
3,CC(C)Oc1ccc(-c2ccc(C(=O)N[C@H](Cc3ccc(-c4noc(-c5ccc(NC(=O)OC(C)(C)C)cc5)n4)c(F)c3)C(=O)O)o2)cc1F [Compound 6O],20 to 40
4,CC(C)(C)OC(=O)Nc1ccc(-c2nc(-c3ccc(C[C@@H](NC(=O)c4cccc(-c5ccccc5F)c4)C(=O)O)cc3F)no2)cc1 [Compound 6P],40 to 60
5,Cc1ccc(-c2ccc(C(=O)N[C@H](Cc3ccc(-c4noc(-c5ccc(NC(=O)OC(C)(C)C)cc5)n4)cn3)C(=O)O)o2)cc1 [Compound 6Q],40 to 60
6,Cc1ccc(-c2ccc(C(=O)N[C@H](Cc3ccc(-c4noc(-c5ccc(NC(=O)OC(C)(C)C)cc5)n4)c(C)c3)C(=O)O)o2)cc1 [Compound 6R],> 60
7,Cc1cc(C[C@@H](NC(=O)c2ccc(-c3ccc(Cl)cc3F)o2)C(=O)O)ccc1-c1noc(-c2ccc(NC(=O)OC(C)(C)C)cc2)n1 [Compound 6S],20 to 40
8,CC(C)(C)OC(=O)Nc1ccc(-c2nc(-c3ccc(C[C@@H](NC(=O)c4cccc(C#CC5CC5)c4)C(=O)O)cc3F)no2)cc1 [Compound 6T],20 to 40
9,CC(C)c1ccc(-c2ccc(C(=O)N[C@H](Cc3ccc(F)c(-c4noc(-c5ccc(NC(=O)OC(C)(C)C)cc5)n4)c3)C(=O)O)o2)cc1 [Compound 6V],20 to 40
10,Cc1ccc(-c2ccc(C(=O)N[C@H](Cc3cc(Br)cc(-c4noc(-c5ccc(NC(=O)OC(C)(C)C)cc5)n4)c3)C(=O)O)o2)cc1 [Compound 6Y],> 60
11,Cc1ccc(-c2ccc(C(=O)N[C@H](Cc3ccc(C)c(-c4noc(-c5ccc(NC(=O)OC(C)(C)C)cc5)n4)c3)C(=O)O)o2)cc1 [Compound 6Z],40 to 60
12,Cc1ccc(-c2ccc(C(=O)NC(Cc3cc(F)cc(C#Cc4ccc(NC(=O)OC(C)(C)C)cc4)c3)C(=O)O)o2)cc1 (stereo not drawn) [Compound 7E],> 60
13,Cc1cc(-c2ccc(C(=O)N[C@H](Cc3ccc(-c4noc(-c5ccc(NC(=O)OC(C)(C)C)cc5)n4)c(F)c3)C(=O)O)o2)ccc1F [Compound 9E],> 60
14,Cc1cc(-c2ccc(C(=O)N[C@@H](Cc3ccc(-c4noc(-c5ccc(NC(=O)OC(C)(C)C)cc5)n4)c(F)c3)C(=O)O)o2)ccc1F [Compound 10E],> 60

# Same assay, conditions: 6 h; concentration 3 μM; read-out: Activity (agonist), percentage of the activity of the control
row,SMILES,activation at 3 µM [%]
1,CC(C)c1ccc(-c2cccc(C(=O)N[C@H](Cc3ccc(-c4noc(-c5ccc(NC(=O)OC(C)(C)C)cc5)n4)c(F)c3)C(=O)O)c2)cc1 [Compound 6D],20 to 40
2,Cc1ccc(-c2cccc(C(=O)N[C@H](Cc3ccc(-c4noc(-c5ccc(NC(=O)OC(C)(C)C)cc5)n4)c(F)c3)C(=O)O)c2)o1 [Compound 6I],20 to 40
3,CC(C)Oc1ccc(-c2ccc(C(=O)N[C@H](Cc3ccc(-c4noc(-c5ccc(NC(=O)OC(C)(C)C)cc5)n4)c(F)c3)C(=O)O)o2)cc1 [Compound 6N],40 to 60
4,Cc1csc(-c2cccc(C(=O)N[C@H](Cc3ccc(-c4noc(-c5ccc(NC(=O)OC(C)(C)C)cc5)n4)c(F)c3)C(=O)O)c2)c1 [Compound 6U],40 to 60
5,COc1ccc(C[C@@H](NC(=O)c2ccc(-c3ccc(C)cc3)o2)C(=O)O)cc1-c1noc(-c2ccc(NC(=O)OC(C)(C)C)cc2)n1 [Compound 6W],20 to 40
6,Cc1ccc(-c2ccc(C(=O)N[C@H](Cc3cc(F)cc(-c4noc(-c5ccc(NC(=O)OC(C)(C)C)cc5)n4)c3)C(=O)O)o2)cc1 [Compound 6X],40 to 60
7,Cc1ccc(-c2cccc(C(=O)N[C@@H](Cc3ccc(-c4noc(-c5ccc(NC(=O)OC(C)(C)C)cc5)n4)c(F)c3)C(=O)O)c2)cc1 [Compound 8E],> 60

# Same assay, conditions: 6 h; concentration 3.16 μM; read-out: Activity (agonist), percentage of the activity of the control
row,SMILES,activation at 3.16 µM [%]
1,CC(C)c1ccc(-c2ccc(C(=O)N[C@H](Cc3ccc(-c4noc(-c5ccc(NC(=O)OC(C)(C)C)cc5)n4)c(F)c3)C(=O)O)o2)cc1 [Compound 6B],40 to 60
2,Cc1ccc(-c2ccc(C(=O)NC(Cc3ccc(F)c(C#Cc4ccc(NC(=O)OC(C)(C)C)cc4)c3)C(=O)O)o2)cc1 (stereo not drawn) [Compound 6E],> 60
3,Cc1ccc(-c2cccc(C(=O)N[C@H](Cc3ccc(-c4noc(-c5ccc(NC(=O)OC(C)(C)C)cc5)n4)c(F)c3)C(=O)O)c2)cc1Cl [Compound 6H],> 60
4,Cc1ccc(-c2ccc(C(=O)N[C@H](Cc3ccc(-c4noc(-c5ccc(NC(=O)OC(C)(C)C)cc5)n4)c(F)c3)C(=O)O)o2)cc1 [Compound 11E],> 60

# Same assay, conditions: 6 h; concentration 10 μM; read-out: Activity (agonist), percentage of the activity of the control
row,SMILES,activation at 10 µM [%]
1,CC(C)(C)OC(=O)Nc1ccc(-c2nc(-c3ccc(C[C@@H](NC(=O)c4cccc(-c5ccc(Cl)cc5F)c4)C(=O)O)cc3F)no2)cc1 [Compound 6C],> 60
2,CC(C)(C)OC(=O)Nc1ccc(-c2nc(-c3ccc(C[C@@H](NC(=O)c4cccc(-c5ccc(Cl)c(F)c5)c4)C(=O)O)cc3F)no2)cc1 [Compound 6F],> 60
3,Cc1ccc(-c2cccc(C(=O)N[C@H](Cc3ccc(-c4noc(-c5ccc(NC(=O)OC(C)(C)C)cc5)n4)c(F)c3)C(=O)O)c2)s1 [Compound 6J],> 60
4,CC(C)Oc1ccc(-c2cccc(C(=O)N[C@H](Cc3ccc(-c4noc(-c5ccc(NC(=O)OC(C)(C)C)cc5)n4)c(F)c3)C(=O)O)c2)cc1 [Compound 6K],> 60
5,COc1ccc(C#CC(=O)N[C@H](Cc2ccc(-c3noc(-c4ccc(NC(=O)OC(C)(C)C)cc4)n3)c(F)c2)C(=O)O)cc1 [Compound 6M],20 to 40
